Measurements as given in patent US9353082B2, “Pharmaceutical compounds” (BIAL—PORTELA & CA, S.A., priority 2008, dated 2016).

Legend:
FAAH [1] = biological target: T1, FAAH (Mus musculus, UniProt O08914); assay: In vivo FAAH inhibition after oral dosing, remaining activity in liver homogenate (LVh, peripheral tissue); parameters: species or system NMRI mice; conditions: liver homogenate, low value = strong inhibitor; for In Vivo LVh 3 mg·kg 8 h (remaining FAAH activity, % of control): 8 h after dosing; for In Vivo LVh 3 mg · kg · 8 h (remaining FAAH activity): 3 mg/kg oral
T1 construct: A fragment of liver, left lung lobe and brain without cerebellum were removed; from tissue; host or cells: male NMRI mice; brain (without cerebellum) and liver homogenates
T1 sequence (O08914 1-579): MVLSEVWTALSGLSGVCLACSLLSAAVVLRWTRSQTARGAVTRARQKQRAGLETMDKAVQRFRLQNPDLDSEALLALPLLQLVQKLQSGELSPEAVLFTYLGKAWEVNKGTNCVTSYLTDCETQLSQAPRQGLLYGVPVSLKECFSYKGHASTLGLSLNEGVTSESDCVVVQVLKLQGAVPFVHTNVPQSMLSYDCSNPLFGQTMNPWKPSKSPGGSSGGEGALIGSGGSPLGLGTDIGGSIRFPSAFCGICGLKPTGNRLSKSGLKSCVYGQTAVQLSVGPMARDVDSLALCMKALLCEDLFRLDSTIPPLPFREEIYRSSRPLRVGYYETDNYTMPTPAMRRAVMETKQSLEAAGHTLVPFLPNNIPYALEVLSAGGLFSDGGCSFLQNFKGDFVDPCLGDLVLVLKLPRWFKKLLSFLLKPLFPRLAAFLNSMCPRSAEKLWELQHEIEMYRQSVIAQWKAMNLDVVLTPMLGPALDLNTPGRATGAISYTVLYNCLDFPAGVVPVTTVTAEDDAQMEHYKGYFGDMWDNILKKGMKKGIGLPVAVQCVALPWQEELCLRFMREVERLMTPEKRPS
Method: (§1) The in vivo test was performed according to the protocol described below. BRh indicates inhibition in central nervous tissue and LVh indicates inhibition in peripheral tissue, in this case liver.
(§2) The animals used for experiments were male NMRI mice (weighing 27-44 g) obtained from Interfauna Ibérica (Spain). Mice were kept 5 per cage, under controlled environmental conditions (12 hr light/dark cycle and room temperature 22±1° C.). Food and tap water were allowed ad libitum and the experiments were all carried out during daylight hours.
(§3) Animals were administered 30 mg/kg or 3 mg/kg compounds of the invention via oral route (8 ml/kg; compound suspended in 0.5% carboxymethylcellulose (CMC) or solubilized in water) or vehicle (controls) using animal feeding stainless steel curve needles (Perfectum, U.S.A.). Fifteen minutes before sacrifice animal were anesthetized with pentobarbital 60 mg/kg administered intraperitoneally. A fragment of liver, left lung lobe and brain without cerebellum were removed and put in plastic vials containing membrane buffer (3 mM MgCl2, 1 mM EDTA, 50 mM Tris HCl pH 7.4). Tissues were stored at −30° C. until analysis.
(§4) Animals were always fasted overnight before administration of compounds except for time points of >18 h, where food was removed on the morning of day of administration and the compound was administered in the afternoon of the same day. Animals were then given water but nothing else.
(§5) Tissues were thawed on ice and were homogenized in 10 volumes of membrane buffer (3 mM MgCl2, 1 mM EDTA, 50 mM Tris HCl pH 7.4) with either Potter-Elvejhem (brains—8 strokes at 500 rpm) or Heidolph Diax (livers—2 strokes at position 5 for 20 sec with 30 sec pauses).
(§6) Total protein in tissues was determined with the BioRad Protein Assay (BioRad) using a standard curve of BSA (50-250 μg/ml).
(§7) Reaction mix (total volume of 200 μl) contained: […] (2 μM AEA+5 nM ^3H-AEA), 0.1% fatty acid free BSA, 15 μg (brain), 5 μg (liver) or 50 μg (lung) protein, in 1 mM EDTA, 10 mM Tris pH 7.6. After a […] pre-incubation period at 37° C., reaction was started by the addition of the substrate solution (cold AEA+radiolabelled AEA+BSA). Reaction was carried out for 10 min (brain and lung) or […] (liver) before termination by the addition of 400 μl activated charcoal suspension (8 g charcoal in 32 ml 0.5 M HCl in continuous agitation). After a […] incubation period at room temperature with agitation, charcoal was sedimented by centrifugation in microfuge (10 min at 13000 rpm). 200 μl of the supernatant were added to 800 μl Optiphase Supermix scintillation cocktail previously distributed in 24-well plates. Counts per minute (cpm) were determined in a MicrobetaTriLux scintillation counter.
(§8) In each assay blanks (without protein) were prepared.
(§9) The percentage of remaining enzymatic activity was calculated in respect to controls and after blank subtraction.

FAAH [2] = biological target: T1, FAAH; assay: In vivo FAAH inhibition after oral dosing, remaining activity in brain homogenate (BRh, central nervous tissue); parameters: species or system NMRI mice; conditions: brain homogenate, low value = strong inhibitor; for In Vivo BRh 3 mg·kg 8 h (remaining FAAH activity, % of control): 8 h after dosing; for In Vivo BRh 3 mg · kg · 8 h (remaining FAAH activity): 3 mg/kg oral
Method: as §1, §2, §3, §4, §5, §6, §7, §8, §9

In Vivo LVh 3 mg·kg 8 h (remaining FAAH activity, % of control) (FAAH [1])	In Vivo BRh 3 mg·kg 8 h (remaining FAAH activity, % of control) (FAAH [2])	In Vivo LVh 3 mg · kg · 8 h (remaining FAAH activity) (FAAH [1])	In Vivo BRh 3 mg · kg · 8 h (remaining FAAH activity) (FAAH [2])	SMILES
65.5 % of control	96.1 % of control	–	–	CN(C(=O)n1cnc(-c2ccc(S(=O)(=O)N3CCC(O)CC3)cc2)c1)C1CCCCC1 [Compound no. 432, N-cyclohexyl-4-(4-(4-hydroxypiperidin-1-ylsulfonyl)phenyl)-N-methyl-1H-imidazole-1-carboxamide]
–	–	67.4 % of control	108.5 % of control	COc1ccc(-c2cn(C(=O)N(C)C3CCNCC3)cn2)cc1 [Compound no. 501, 4-(4-methoxyphenyl)-N-methyl-N-(piperidin-4-yl)-1H-imidazole-1-carboxamide]
95.4 % of control	109.1 % of control	–	–	CN(C(=O)n1cnc(-c2ccc(S(=O)(=O)N3CCC(OCc4ccccc4)CC3)cc2)c1)C1CCCCC1 [Compound no. 415, 4-(4-(4-(benzyloxy)piperidin-1-ylsulfonyl)phenyl)-N-cyclohexyl-N-methyl-1H-imidazole-1-carboxamide]
–	–	91.1 % of control	83.1 % of control	CN(C(=O)n1cnc(-c2cccnc2)c1)C1CCN(CC(=O)O)CC1 [Compound 558, 2-(4-(N-methyl-4-(pyridin-3-yl)-1H-imidazole-1-carboxamido)piperidin-1-yl)acetic acid]
51.3 % of control	77.3 % of control	–	–	CN(C(=O)n1cnc(-c2ccc(-c3nn[nH]n3)cc2)c1)C1CCCCC1 [Compound no. 380, 4-(4-(2H-tetrazol-5-yl)phenyl)-N-cyclohexyl-N-methyl-1H-imidazole-1-carboxamide]
1 % of control	0.8 % of control	–	–	COc1ccc(-c2cn(C(=O)N(C)C3CCN(Cc4ccccc4)CC3)cn2)cc1 [Compound no. 419, N-(1-benzylpiperidin-4-yl)-4-(4-methoxyphenyl)-N-methyl-1H-imidazole-1-carboxamide]
–	–	51.2 % of control	112.5 % of control	CN(C(=O)n1cnc(-c2ccccc2)c1)C1CCNCC1.Cl [Compound no. 504, N-methyl-4-phenyl-N-(piperidin-4-yl)-1H-imidazole-1-carboxamide hydrochloride]
0.7 % of control	0.9 % of control	–	–	CN(C(=O)n1nnc2ccccc21)C1CCN(Cc2ccccc2)CC1.Cl [Compound no. 492, N-(1-benzylpiperidin-4-yl)-N-methyl-1H-benzo[d][1,2,3]triazole-1-carboxamide hydrochloride]
–	–	4.4 % of control	82 % of control	CCCN1CCC(N(C)C(=O)n2cnc(-c3ccc[n+]([O-])c3)c2)CC1 [Compound no. 519, 3-(1-(methyl(1-propylpiperidin-4-yl)carbamoyl)-1H-imidazol-4-yl)pyridine 1-oxide]
15.1 % of control	92.1 % of control	–	–	COc1ccc(-c2cn(C(=O)N(C)C3CCCCC3)cn2)cc1NS(C)(=O)=O [Compound no. 485, N-cyclohexyl-4-(4-methoxy-3-(methylsulfonamido)phenyl)-N-methyl-1H-imidazole-1-carboxamide]
–	–	78.6 % of control	82.2 % of control	Br.CCN1CCC(N(C)C(=O)n2cnc(-c3ccc(F)c(O)c3)c2)CC1 [Compound 561, N-(1-ethylpiperidin-4-yl)-4-(4-fluoro-3-hydroxyphenyl)-N-methyl-1H-imidazole-1-carboxamide hydrobromide]
–	–	14.4 % of control	90.3 % of control	CN(C(=O)n1cnc(-c2ccc(O)c(C(N)=O)c2)c1)C1CCOCC1 [Compound no. 513, 4-(3-carbamoyl-4-hydroxyphenyl)-N-methyl-N-(tetrahydro-2H-pyran-4-yl)-1H-imidazole-1-carboxamide]
–	–	11.5 % of control	50.2 % of control	CCN1CCC(N(C)C(=O)n2cnc(-c3cccc(OC)c3)c2)CC1 [Compound no. 502, N-(1-ethylpiperidin-4-yl)-4-(3-methoxyphenyl)-N-methyl-1H-imidazole-1-carboxamide]
104.6 % of control	111.4 % of control	–	–	CN(C(=O)n1cnc(-c2ccc(NCc3ccccc3)c([N+](=O)[O-])c2)c1)C1CCCCC1 [Compound no. 425, 4-(4-(benzylamino)-3-nitrophenyl)-N-cyclohexyl-N-methyl-1H-imidazole-1-carboxamide]
–	–	17.2 % of control	78.3 % of control	CCN1CCC(N(C)C(=O)n2cnc(-c3cccc([N+](=O)[O-])c3)c2)CC1 [Compound no. 509, N-(1-ethylpiperidin-4-yl)-N-methyl-4-(3-nitrophenyl)-1H-imidazole-1-carboxamide]
2 % of control	3.8 % of control	–	–	CN(C(=O)n1cnc(-c2cccnc2)c1)C1CCN(CCc2ccccc2)CC1 [Compound no. 488, N-methyl-N-(1-phenethylpiperidin-4-yl)-4-(pyridin-3-yl)-1H-imidazole-1-carboxamide]
2.7 % of control	1.7 % of control	–	–	CN(C(=O)n1cnc(-c2ccc(S(C)(=O)=O)cc2)c1)C1CCCCC1 [Compound no. 422, N-cyclohexyl-N-methyl-4-(4-(methylsulfonyl)phenyl)-1H-imidazole-1-carboxamide]
1.9 % of control	1.3 % of control	–	–	CN(C(=O)n1cnc(-c2ccc[n+]([O-])c2)c1)C1CCN(Cc2ccccc2)CC1 [Compound no. 459, 3-(1-((1-benzylpiperidin-4-yl)(methyl)carbamoyl)-1H-imidazol-4-yl)pyridine 1-oxide]
9.6 % of control	4.9 % of control	–	–	CC1(C)COCN1C(=O)n1nnc2cccnc21 [Compound no. 368, (3H-[1,2,3]triazolo[4,5-b]pyridin-3-yl)(4,4-dimethyloxazolidin-3-yl)methanone]
–	–	45 % of control	90.2 % of control	CCCN1CCC(N(C)C(=O)n2cnc(-c3cccc(C(=O)NO)c3)c2)CC1 [Compound 552, 4-(3-(hydroxycarbamoyl)phenyl)-N-methyl-N-(1-propylpiperidin-4-yl)-1H-imidazole-1-carboxamide]
